Tests used:
Assay type in all cases: functional
PC-3 = assay: Growth inhibition of human PC3 cells
MOLT-4 = assay: Growth inhibition of human MOLT4 cells
SF-295 = assay: Growth inhibition of human SF295 cells
SNB-19 = assay: Growth inhibition of human SNB19 cells
[1] = Growth inhibition of human Hs 578T cells
LOX IMVI = assay: Growth inhibition of human LOXIMVI cells
HOP-62 = assay: Growth inhibition of human HOP62 cells
IGROV-1 = assay: Growth inhibition of human IGROV1 cells
OVCAR-3 = assay: Growth inhibition of human OVCAR-3 cells
MDA-MB-231 = assay: Growth inhibition of human MDA-MB-231 cells
NCI-H23 = assay: Growth inhibition of human NCI-H23 cells
CCRF-CEM = assay: Growth inhibition of human CCRF-CEM cells
OVCAR-8 = assay: Growth inhibition of human OVCAR8 cells
RPMI-8226 = assay: Growth inhibition of human RPMI8226 cells
786-0 = assay: Growth inhibition of human 786-0 cells
HCT-116 = assay: Growth inhibition of human HCT116 cells
NCI-H522 = assay: Growth inhibition of human NCI-H522 cells
K562 = assay: Growth inhibition of human K562 cells
RXF 393 = assay: Growth inhibition of human […] cells
SNB-75 = assay: Growth inhibition of human SNB75 cells
UACC-62 = assay: Growth inhibition of human UACC62 cells
COLO 205 = assay: Growth inhibition of human COLO205 cells
[2] = read-out: pLC50 (the source's name) (converted)

CC(C)=CCC/C(C)=C/Cc1cc(/C=C/c2cc(O)cc(O)c2)ccc1O [SCHWEINFURTHIN I]
GI50 (PC-3): 6.61 µM | LC50 (PC-3): 49 µM | TGI (PC-3; read-out: pTGI (converted)): 20.4 µM | GI50 (MOLT-4): 7.24 µM | LC50 (MOLT-4): > 100 µM | TGI (MOLT-4; read-out: pTGI (converted)): 30.2 µM | GI50 (SF-295): 0.372 µM | LC50 (SF-295): 51.3 µM | TGI (SF-295; read-out: pTGI (converted)): 15.8 µM | GI50 (SNB-19): 12.6 µM | LC50 (SNB-19): 56.2 µM | TGI (SNB-19; read-out: pTGI (converted)): 26.9 µM | GI50 [1]: 4.07 µM | LC50 [1]: > 100 µM | TGI ([1]; read-out: pTGI (converted)): 26.3 µM | GI50 (LOX IMVI): 7.24 µM | CC50 (LOX IMVI; [2]): 50.1 µM | TGI (LOX IMVI; read-out: pTGI (converted)): 20.9 µM | GI50 (HOP-62): 14.5 µM | LC50 (HOP-62): 53.7 µM | TGI (HOP-62; read-out: pTGI (converted)): 27.5 µM | GI50 (IGROV-1): 11.7 µM | CC50 (IGROV-1; [2]): 55 µM | TGI (IGROV-1; read-out: pTGI (converted)): 25.1 µM | GI50 (OVCAR-3): 12.3 µM | LC50 (concentration killing 50% of cells) (OVCAR-3): 50.1 µM | TGI (OVCAR-3; read-out: pTGI (converted)): 25.1 µM | GI50 (MDA-MB-231): 10.7 µM | LC50 (MDA-MB-231): 63.1 µM | TGI (MDA-MB-231; read-out: pTGI (converted)): 26.3 µM | GI50 (NCI-H23): 11.7 µM | LC50 (NCI-H23): 61.7 µM | TGI (NCI-H23; read-out: pTGI (converted)): 26.9 µM | GI50 (CCRF-CEM): 5.37 µM | LC50 (CCRF-CEM): 95.5 µM | TGI (CCRF-CEM; read-out: pTGI (converted)): 25.7 µM | GI50 (OVCAR-8): 13.8 µM | LC50 (OVCAR-8): 70.8 µM | TGI (OVCAR-8; read-out: pTGI (converted)): 30.9 µM | GI50 (RPMI-8226): 3.98 µM | LC50 (RPMI-8226): 91.2 µM | TGI (RPMI-8226; read-out: pTGI (converted)): 19.1 µM | GI50 (786-0): 3.55 µM | CC50 (786-0; [2]): 37.2 µM | TGI (786-0; read-out: pTGI (converted)): 12 µM | GI50 (HCT-116): 11 µM | CC50 (HCT-116; [2]): 50.1 µM | TGI (HCT-116; read-out: pTGI (converted)): 23.4 µM | GI50 (NCI-H522): 11.2 µM | LC50 (NCI-H522): 72.4 µM | TGI (NCI-H522; read-out: pTGI (converted)): 28.2 µM | GI50 (K562): 5.01 µM | LC50 (K562): 72.4 µM | TGI (K562; read-out: pTGI (converted)): 22.4 µM | GI50 (RXF 393): 1.78 µM | CC50 (RXF 393; [2]): 7.76 µM | TGI (RXF 393; read-out: pTGI (converted)): 3.72 µM | GI50 (SNB-75): 11.2 µM | LC50 (SNB-75): 52.5 µM | TGI (SNB-75; read-out: pTGI (converted)): 24.5 µM | GI50 (UACC-62): 10.7 µM | CC50 (UACC-62; [2]): 51.3 µM | TGI (UACC-62; read-out: pTGI (converted)): 23.4 µM | GI50 (COLO 205): 18.2 µM | LC50 (COLO 205): 64.6 µM
